What is called IC50 is the concentration that gives 50% inhibition. Broadly, the melting point is the temperature, or range, at which the solid turns liquid. By Ki is commonly meant the dissociation constant of the complex between target and ligand, obtained from inhibition or displacement. The low end stands for higher affinity, the high end for lower affinity.

Read-outs that look alike come from different tables or passages of the source.

Here are results for six compounds from patent US8278345B2, “Inhibitors of glutaminyl cyclase” (Probiodrug AG, priority 2006, dated 2012).

Series [1] has as its target hQC (Homo sapiens, UniProt Q16769). Kind of series: Inhibitor assay for glutaminyl cyclase activity (fluorometric, H-Gln-βNA / H-Gln-AMC). In kind it is biochemical. In outline:
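Ki values came from fitting progress curves to a competitive inhibition model; rapid screens used 4 mM inhibitor with substrate at KM. QC activity was read at 30 °C via auxiliary pyroglutamyl aminopeptidase releasing βNA (0.2 mM H-Gln-βNA, 0.2 M Tris pH 8.0, 20 mM EDTA) or AMC (0.05 M Tris pH 8.0, 5 mM EDTA).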

Where [2] appears, read: compound from preparative synthesis, purified, read-out: IC50 hQC.
The mark [3] stands for this setting: compound from preparative synthesis, purified.

Sequence of hQC (Q16769 29-361): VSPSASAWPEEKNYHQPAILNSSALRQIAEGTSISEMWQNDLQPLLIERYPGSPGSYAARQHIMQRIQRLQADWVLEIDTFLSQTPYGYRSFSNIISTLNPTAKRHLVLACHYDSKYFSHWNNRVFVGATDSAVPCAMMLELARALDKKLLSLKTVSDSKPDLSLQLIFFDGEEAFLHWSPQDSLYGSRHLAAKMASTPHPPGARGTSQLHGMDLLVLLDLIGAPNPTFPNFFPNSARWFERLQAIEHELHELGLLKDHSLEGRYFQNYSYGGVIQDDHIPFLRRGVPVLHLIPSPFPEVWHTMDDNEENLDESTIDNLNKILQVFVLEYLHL

`CC(=O)C1=C(O)C(=O)N(c2ccc3[nH]cnc3c2)C1c1cc(Br)ccc1F` (stereo not drawn) [Compound 437, 4-Acetyl-1-(1H-benzoimidazol-5-yl)-5-(5-bromo-2-fluoro-phenyl)-3-hydroxy-1,5-dihydro-pyrrol-2-one] displayed a melting point of 195 °C. The IC50 in series [1] (setting [2]) was 118 nM. The IC50 in series [1] (read-out: IC50) was 4 nM.

As for `O=C(C1=C(O)C(=O)N(c2ccc3[nH]cnc3c2)C1c1ccc2nonc2c1)C1CC1` (stereo not drawn) [Compound 440, 1-(1H-Benzoimidazol-5-yl)-5-benzo[c][1,2,5]oxadiazol-5-yl-4-cyclopropanecarbonyl-3-hydroxy-1,5-dihydro-pyrrol-2-one], the melting point was found to be 170 °C. Besides, the IC50 in series [1] (setting [2]) came to 11.4 nM. Moreover, in series [1] (read-out: IC50), the IC50 was determined as 4 nM.

The compound `O=C1C(O)=C(c2ccccc2)C(c2cc(F)cc(F)c2F)N1c1ccc2[nH]cnc2c1` (stereo not drawn) [Compound 445, 1-(1H-Benzoimidazol-5-yl)-3-hydroxy-4-phenyl-5-(2,3,5-trifluoro-phenyl)-1,5-dihydro-pyrrol-2-one] yielded a melting point of 150 °C. Moreover, in series [1] (setting [2]), the IC50 was 2.6 nM. Moreover, the IC50 in series [1] (read-out: IC50) came out at 4 nM.

`O=C(C1=C(O)C(=O)N(c2ccc3[nH]cnc3c2)C1c1ccc2cccc(O)c2n1)C1CC1` (stereo not drawn) [Compound 446, 1-(1H-Benzoimidazol-5-yl)-4-cyclopropanecarbonyl-3-hydroxy-5-(8-hydroxy-quinolin-2-yl)-1,5-dihydro-pyrrol-2-one] yielded a melting point of 155 °C. Moreover, the IC50 in series [1] (setting [2]) came to 1.35 nM. In addition, in series [1] (read-out: IC50), the IC50 amounted to 4 nM.

With `CC1=C(O)C(=O)N(c2ccc3[nH]cnc3c2)C1c1cccc(Cl)c1Cl` (stereo not drawn) [Compound 468, 1-(1H-benzo[d]imidazol-5-yl)-5-(2,3-dichlorophenyl)-3-hydroxy-4-methyl-1H-pyrrol-2(5H)-one], the melting point was 162 to 174 °C. This compound gave a Ki in series [1] (setting [3]) of 14.6 nM. For the same compound, the IC50 in series [1] (read-out: IC50) is 75 nM.

As to `CC1=C(O)C(=O)N(c2ccc3[nH]cnc3c2)C1c1cc(F)c(F)cc1F` (stereo not drawn) [Compound 469, 1-(1H-benzo[d]imidazol-5-yl)-5-(2,4,5-trifluorophenyl)-3-hydroxy-4-methyl-1H-pyrrol-2(5H)-one], the melting point came to 184 °C. In series [1] (setting [3]), this compound gave a Ki of 53.6 nM. Also, the IC50 in series [1] (read-out: IC50) turned out to be 233 nM.
